Reference: ChEMBL document CHEMBL1138255, “Enantioselective synthesis and vanilloid activity evaluation of 1-beta-(p-methoxycinnamoyl)polygodial, an antinociceptive compound from Drymis winteri barks” (Bioorg Med Chem Lett, 2007)

How the values were obtained:
[1] = target: Transient receptor potential cation channel subfamily V member 1 (Homo sapiens) (UniProt Q8NER1); test: Activity at human TRPV1 receptor expressed in HEK293 cells assessed as calcium influx relative to ionomycin; assay type: cell-based
[2] = target: Transient receptor potential cation channel subfamily V member 1 (Homo sapiens) (UniProt Q8NER1); test: Activity at human TRPV1 receptor expressed in HEK293 cells assessed as calcium influx in presence of 5-iodo-resiniferatoxin; assay type: cell-based

Sequence of Transient receptor potential cation channel subfamily V member 1 (Homo sapiens) (Q8NER1 whole entry): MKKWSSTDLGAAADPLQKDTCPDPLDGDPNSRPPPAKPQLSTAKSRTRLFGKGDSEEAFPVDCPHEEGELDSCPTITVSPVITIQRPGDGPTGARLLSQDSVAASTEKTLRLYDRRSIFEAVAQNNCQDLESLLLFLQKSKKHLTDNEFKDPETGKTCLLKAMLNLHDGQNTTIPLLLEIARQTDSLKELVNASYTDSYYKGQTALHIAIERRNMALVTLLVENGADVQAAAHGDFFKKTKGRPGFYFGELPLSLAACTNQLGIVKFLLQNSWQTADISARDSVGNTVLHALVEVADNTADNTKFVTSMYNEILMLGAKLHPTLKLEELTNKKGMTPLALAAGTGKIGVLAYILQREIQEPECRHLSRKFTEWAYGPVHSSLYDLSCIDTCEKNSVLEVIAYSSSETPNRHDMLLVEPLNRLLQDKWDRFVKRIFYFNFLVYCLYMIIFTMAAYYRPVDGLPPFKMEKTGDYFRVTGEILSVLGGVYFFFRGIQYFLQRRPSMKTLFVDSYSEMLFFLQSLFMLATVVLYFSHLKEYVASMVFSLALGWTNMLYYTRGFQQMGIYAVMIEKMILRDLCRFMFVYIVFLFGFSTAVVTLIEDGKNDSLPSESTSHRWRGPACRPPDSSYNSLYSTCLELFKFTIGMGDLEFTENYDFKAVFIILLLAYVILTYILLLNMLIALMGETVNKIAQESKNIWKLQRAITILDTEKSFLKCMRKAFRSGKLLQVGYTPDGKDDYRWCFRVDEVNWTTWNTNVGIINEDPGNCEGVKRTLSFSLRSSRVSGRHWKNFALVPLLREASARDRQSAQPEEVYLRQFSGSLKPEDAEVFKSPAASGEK

Row | Activity [1] | SMILES | Activity [2]
1 | 0% | CC1(C)CC[C@@H](O)[C@@]2(C)C1CC=C(C=O)[C@@H]2C=O (some centres undefined) | 
2 | 0% | COc1ccc(/C=C/C(=O)O[C@@H]2CCC(C)(C)C3CC=C(CO)[C@H](CO)[C@]32C)cc1 (some centres undefined) | 

Row | SMILES | Activity [1] | Activity [2]
3 | COc1ccc(/C=C/C(=O)O[C@@H]2CCC(C)(C)C3CC=C(C=O)[C@H](C=O)[C@]32C)cc1 (some centres undefined) | 40.4% | 22%
